The text below walks through data of patent publication US20250000855A1, “USE OF APOMORPHINE AS THERAPEUTIC AGENT FOR NECROPTOSIS-RELATED DISEASES” (INDUSTRY-ACADEMIC COOPERATION FOUNDATION, YONSEI UNIVERSITY, priority 2021, published 2025).

Experiment [1] addresses T1, MLKL N-term domain (amino acids 1-154) (Homo sapiens, UniProt Q8NB16).
T1 construct: MLKL N-term (amino acids 1-154) protein that had been purified in a laboratory; made in house
T1 sequence (Q8NB16 1-154): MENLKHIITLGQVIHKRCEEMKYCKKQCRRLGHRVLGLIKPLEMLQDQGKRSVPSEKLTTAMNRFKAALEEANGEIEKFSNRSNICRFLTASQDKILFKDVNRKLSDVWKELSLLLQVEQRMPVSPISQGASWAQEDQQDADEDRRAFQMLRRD
Description: Surface plasmon resonance (SPR) analysis, binding to MLKL N-term domain. Conditions: MLKL N-term domain immobilized on CM5 chip, Biacore T200, 25° C., 10 mM HEPES pH 7.4. The procedure:
(§1) The interaction between MLKL and apomorphine (=APO) was detected through surface plasmon resonance (SPR) analysis using Biacore T200 (GE Healthcare). For pH scouting, a buffer consisting of 10 mM sodium acetate (pH 4.0 to 6.0) was used. MLKL protein (Abcam, ab241453), and MLKL N-term (amino acids 1-154) protein that had been purified in a laboratory were immobilized on the surface of a sensor chip CM5 (GE Healthcare) under scouted buffer conditions. To deduce an Rligand value, a coupling process was performed based on the molecular weights of MLKL, MLKL N-term domain (MW ligand), and APO (MW analyte). Oxidized (24 hr, RT incubation) and reduced (+DTT(DL-dithiothreitol)) forms of APO were injected into a running buffer (flow rate: 10 μl/min) consisting of 10 mM HEPES (pH 7.4) at 25° C. A sensorgram was recorded and analyzed in real time using control software provided by the Biacore T200 system itself. Six or more concentrations of APO were used in combination, and each KD value was derived. All run data was calculated using BIAevaluation Software (GE Healthcare).
(§2) SPR analysis was used to analyze the interaction pattern between APO and the MLKL protein (Experimental Method 1-10). […] Here, the analysis was performed by binding MLKL and the MLKL N-term domain protein immobilized on a CM5 chip with APO having six concentrations.
A general note: SPR reads the build-up and loss of mass on a sensor chip optically.

Experiment [2] relates to MLKL oligomerization. Put plainly: MLKL oligomerization (tetramer and octamer bands) by non-reducing or reducing SDS-PAGE. It counts as cell-based, human. Particulars: cytoplasmic and membrane fractions, necroptosis induced with TBZ, FIG. 2 / FIG. 6A. The protocol: Cells were pretreated with Z-VAD (invivoGen, tlrl-vad) and a compound for 1 hour, and necroptosis was induced with TNF-α (ATGen, TNF0501) and BV6 (Biovision, B1332-5) for the indicated time. The prepared cells were appropriately treated according to analysis (Z-VAD: carbobenzoxy-valyl-alanyl-aspartyl, TNF-α: tumor necrosis factor-α, BV6: 4,4′-(1,6-hexanediyl)bis[N-methyl-L-alanyl-(2S)-2-cyclohexylglycyl-L-prolyl-β-phenyl-L-phenylalaninamide)
Cells were treated with a drug candidate and then collected using centrifugation at 4° C. and 1,500×g for 5 minutes. A supernatant was centrifuged again at 4° C. and 1,500×g for 5 minutes to remove remaining debris, concentrated at 4° C. and 14,000×g for 30 minutes using Amicon ultra-0.5 centrifugal filter unit 10K (Millipore, UFC501096), and stored. […] The extracted protein concentration was measured using a bicinchoninic acid (BCA) protein assay kit (Thermo Fisher Scientific, 23225). […]
To test whether the tetramer and octamer formation of p-MLKL for pore formation in the cell membrane is inhibited by apomorphine (APO), cells that had been treated with each molecule for the indicated time were separated into cytoplasmic and membrane fractions and analyzed through non-reducing or reducing sodium dodecyl sulfate-polyacrylamide gel electrophoresis (SDS-PAGE), and then investigated with specific antibodies (Experimental Method 1-6). […]

For experiment [3], the target named is T2, MLKL protein (Homo sapiens, UniProt Q8NB16).
T2 construct: purchased Abcam ab241453
T2 sequence (Q8NB16 1-471): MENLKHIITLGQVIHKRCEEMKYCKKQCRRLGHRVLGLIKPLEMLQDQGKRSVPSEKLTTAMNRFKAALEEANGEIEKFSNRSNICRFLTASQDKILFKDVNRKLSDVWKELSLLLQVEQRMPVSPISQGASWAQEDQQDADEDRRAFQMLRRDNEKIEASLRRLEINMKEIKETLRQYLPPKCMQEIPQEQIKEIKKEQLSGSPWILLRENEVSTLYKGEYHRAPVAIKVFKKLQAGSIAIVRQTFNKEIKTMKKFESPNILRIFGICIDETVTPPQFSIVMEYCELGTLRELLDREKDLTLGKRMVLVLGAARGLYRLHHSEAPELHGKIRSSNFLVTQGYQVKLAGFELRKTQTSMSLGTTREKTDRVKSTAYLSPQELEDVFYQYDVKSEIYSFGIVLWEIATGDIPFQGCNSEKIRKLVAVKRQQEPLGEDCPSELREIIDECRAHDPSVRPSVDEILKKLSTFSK
Put plainly: Surface plasmon resonance (SPR) analysis, binding to MLKL protein. Conditions: MLKL immobilized on CM5 chip, Biacore T200, 25° C., 10 mM HEPES pH 7.4. The protocol:
as §1, §2

Experiment [4] concerns MLKL translocation in transfected THP-1 cells. Description: Flag-MLKL translocation to cell membrane, immunofluorescent staining, confocal microscopy. Type of experiment: cell-based, human. Conditions: transfected THP-1 cells stimulated with compound and TBZ, FIG. 3. The protocol: A human monocyte cell line THP-1 and a human colon cancer cell line HT-29 were maintained in a 10% FBS-Roswell Park Memorial Institute (RPMI) 1640 medium supplemented with 2 mM L-glutamine, 100 U/ml penicillin, and 100 μg/ml streptomycin at 37° C. under a 5% CO2 condition. The THP-1 cells were differentiated into macrophages in an RPMI 1640 medium containing 500 nM Phorbol 12-myristate 13-acetate (PMA) for 3 hours. Human mixed lineage kinase domain-like protein (MLKL)-flag plasmid (Sino Biological, HG12810-CF) transfection was performed using the electroporation system (Invitrogen) of MicroPorator-mini (Digital Bio).
Cells were seeded on cell culture-treated glass chamber slides. The cells were pretreated with Z-VAD, BV6, and the indicated compound for 1 hour, and then treated with TNF-α and BV6 overnight. Subsequently, the cells were washed with phosphate-buffered saline (PBS) and fixed in 4% paraformaldehyde for 10 minutes. Before incubation for 10 minutes in 0.25% Triton X-100 in PBS, the cells were washed three more times with PBS. The cells were blocked with 5% bovine serum albumin (BSA) in PBS for 30 minutes and stained using an anti-Flag (Sigma, F7425-2MG) antibody. The nuclei were stained with DAPI (Invitrogen, 00-4959-52). Images were captured using a confocal microscope (Olympus, FV1000). […]

For orientation: Kd means the constant that tells how readily two partners part at equilibrium. On to `CN1CCc2cccc3c2[C@H]1Cc1ccc(O)c(O)c1-3` [reduced APO], for which the results for the Kd in experiment [1] and in experiment [3] were 1.14 mM and 244 nM, respectively. In addition, the “intensities of the tetramer and octamer bands of MLKL” value in experiment [2] is listed as “no change”.

In the case of `CN1C(=O)C(Cc2c[nH]c3ccccc23)NC1=S` (stereo not shown) [NEC-1, necrostatin-1], the “distribution of Flag-MLKL signals” value in experiment [4] is listed as “mostly distributed in the cytoplasm”.
